# Data taken from publication PMC4476799, “Englerin A Agonizes the TRPC4/C5 Cation Channels to Inhibit Tumor Cell Line Proliferation” (PLoS ONE, 2015).
# Read-outs that look alike come from different tables or passages of the source.
# System: cancer cell lines from the cancer cell line encyclopedia (CCLE)
# Experiment: Cell line profiling (CLiP) proliferation experiment
# Type: cell-based
# Settings: Homo sapiens; for EC50: read-out: Inflection Point; for IC50: read-out: Crossing Point
# Procedure: Compound profiling experiment and data analysis was performed as previously described. Data was imported and plotted using the Tibco Spotfire DXP application. Lines were categorized as sensitive, intermediate and refractory as follows: Amax<-40 & Inflection Point <2 ~ Sensitive, Amax>-20 & Inflection Point >10 ~ Refractory, all else were called Intermediate. Cancer Cell line HG-U133 Plus 2 data was processed and normalized as described. […] Five sets of refractory cell lines were generated from the pool of refractory cell lines trying to match the lineage composition of the set of sensitive cell lines. The limma package was used as previously described to perform the statistical comparison.
# [1] = MKN-74, cell line MKN74 (stomach)
# [2] = MM1.S, cell line MM1-S (haematopoietic_and_lymphoid_tissue)
# [3] = MOLM-13, cell line MOLM-13 (haematopoietic_and_lymphoid_tissue)
# [4] = MOLP-8, cell line MOLP-8 (haematopoietic_and_lymphoid_tissue)
# [5] = MOLT-16, cell line MOLT-16 (haematopoietic_and_lymphoid_tissue)
# [6] = MONO-MAC-6, cell line MONO-MAC-6 (haematopoietic_and_lymphoid_tissue)
# [7] = MV4-11, cell line MV-4-11 (haematopoietic_and_lymphoid_tissue)
# [8] = NCI-H82, NCI-H82, lung, small_cell_carcinoma
# [9] = NCI-H441, NCI-H441, lung, adenocarcinoma
# [10] = NCI-H647, NCI-H647, lung, mixed_adenosquamous_carcinoma
# [11] = NCI-H650, NCI-H650, lung, bronchioloalveolar_adenocarcinoma
# [12] = NCI-H716, NCI-H716, large_intestine, adenocarcinoma
# [13] = NCI-H810, NCI-H810, lung, large_cell_carcinoma
# [14] = NCI-H1092, cell line NCI-H1092 (lung)
# [15] = NCI-H1299, cell line NCI-H1299 (lung)
# [16] = NCI-H1563, cell line NCI-H1563 (lung)
# [17] = NCI-H1581, cell line NCI-H1581 (lung)
smiles,measurement,setting,value
CC(C)[C@@]12C[C@@H](O)[C@@](C)(O1)[C@@H]1CC[C@@H](C)[C@H]1[C@@H]2OC(=O)/C=C/c1ccccc1 [Englerin B],EC50,"MIA PaCa-2, cell line MIA PaCa-2 (pancreas)",11.3 µM
same,IC50,"MKN-1, cell line MKN1 (stomach)",> 30 µM
same,IC50,"MKN-1, cell line MKN1",> 30 µM
same,IC50,"MKN-7, MKN7 (stomach)",> 30 µM
same,IC50,"MKN-7, cell line MKN7 (stomach)",> 30 µM
same,IC50,"MKN-45, MKN-45 (stomach)",> 30 µM
same,IC50,"MKN-45, cell line MKN-45 (stomach)",> 30 µM
same,IC50,[1],27.5 µM
same,EC50,[1],27.5 µM
same,IC50,[2],> 30 µM
same,EC50,[2],25.6 µM
same,IC50,"MM1.S, cell line MM1-S",> 30 µM
same,EC50,"MOLM-13, MOLM-13 (haematopoietic_and_lymphoid_tissue)",13.1 µM
same,IC50,[3],13.4 µM
same,EC50,[3],13.1 µM
same,IC50,[4],16.6 µM
same,EC50,[4],12.1 µM
same,IC50,"MOLP-8, cell line MOLP-8",16.6 µM
same,IC50,[5],23.3 µM
same,EC50,[5],23.3 µM
same,IC50,[6],18.4 µM
same,EC50,[6],18.4 µM
same,IC50,"MSTO-211H, cell line MSTO-211H (pleura)",27.7 µM
same,IC50,"MV4-11, MV-4-11 cells",11.4 µM
same,EC50,"MV4-11, MV-4-11 cells",11.4 µM
same,IC50,[7],11.4 µM
same,EC50,[7],11.4 µM
same,IC50,"Malme-3M, Malme-3M (skin)",> 30 µM
same,IC50,"Malme-3M, Malme-3M cells",> 30 µM
same,IC50,"Maver1, MAVER-1 (haematopoietic_and_lymphoid_tissue)",13.2 µM
same,IC50,"MeWo, cell line MeWo (skin)",26.2 µM
same,EC50,"MeWo, cell line MeWo (skin)",22.6 µM
same,IC50,"NALM-6, cell line NALM-6 (haematopoietic_and_lymphoid_tissue)",11.8 µM
same,IC50,"NCI-H28, NCI-H28, pleura, NS",11.9 µM
same,EC50,"NCI-H28, NCI-H28, pleura, NS",10.5 µM
same,IC50,[8],19.6 µM
same,EC50,[8],19.6 µM
same,IC50,"NCI-H82, NCI-H82 cells",19.6 µM
same,EC50,"NCI-H82, NCI-H82 cells",19.6 µM
same,IC50,"NCI-H146, NCI-H146 cells",> 30 µM
same,IC50,"NCI-H146, cell line NCI-H146 (lung)",> 30 µM
same,IC50,"NCI-H226, NCI-H226, lung, squamous_cell_carcinoma",> 30 µM
same,IC50,"NCI-H226, cell line NCI-H226",> 30 µM
same,IC50,"NCI-H358, NCI-H358, lung, bronchioloalveolar_adenocarcinoma",22.8 µM
same,IC50,[9],> 30 µM
same,EC50,[9],12.7 µM
same,IC50,"NCI-H441, cell line NCI-H441",> 30 µM
same,IC50,"NCI-H460, NCI-H460, lung, large_cell_carcinoma",> 30 µM
same,IC50,"NCI-H460, cell line NCI-H460",> 30 µM
same,IC50,"NCI-H520, NCI-H520, lung, squamous_cell_carcinoma",> 30 µM
same,IC50,"NCI-H520, NCI-H520 cells",> 30 µM
same,IC50,"NCI-H596, NCI-H596, lung, mixed_adenosquamous_carcinoma",> 30 µM
same,IC50,"NCI-H596, NCI-H596 cells",> 30 µM
same,IC50,[10],15 µM
same,EC50,[10],15 µM
same,IC50,[11],15.8 µM
same,EC50,[11],15.8 µM
same,IC50,"NCI-H650, NCI-H650 cells",15.8 µM
same,EC50,"NCI-H650, NCI-H650 cells",15.8 µM
same,IC50,"NCI-H661, NCI-H661, lung, large_cell_carcinoma",> 30 µM
same,IC50,"NCI-H661, NCI-H661 cells",> 30 µM
same,IC50,[12],29.8 µM
same,EC50,[12],21.4 µM
same,EC50,"NCI-H716, NCI-H716 cells",21.4 µM
same,IC50,"NCI-H727, NCI-H727, lung, NS",> 30 µM
same,IC50,"NCI-H727, cell line NCI-H727",> 30 µM
same,IC50,[13],26.6 µM
same,EC50,[13],21.1 µM
same,IC50,"NCI-H838, NCI-H838, lung, adenocarcinoma",> 30 µM
same,IC50,"NCI-H838, NCI-H838 cells",> 30 µM
same,IC50,"NCI-H1048, cell line NCI-H1048 (lung)",4.81 µM
same,IC50,[14],> 30 µM
same,EC50,[14],3.48 µM
same,IC50,"NCI-H1092, cell line NCI-H1092",> 30 µM
same,IC50,[15],13 µM
same,EC50,[15],11.3 µM
same,IC50,"NCI-H1355, cell line NCI-H1355 (lung)",10.7 µM
same,IC50,"NCI-H1437, NCI-H1437 cells",> 30 µM
same,IC50,"NCI-H1437, cell line NCI-H1437 (lung)",> 30 µM
same,IC50,[16],> 30 µM
same,EC50,[16],9.9 µM
same,IC50,"NCI-H1563, cell line NCI-H1563",> 30 µM
same,IC50,"NCI-H1573, cell line NCI-H1573 (lung)",1.5 µM
same,EC50,"NCI-H1581, NCI-H1581 cells",15.4 µM
same,IC50,[17],14.7 µM
same,EC50,[17],15.4 µM
same,IC50,"NCI-H1623, cell line NCI-H1623 (lung)",> 30 µM
same,IC50,"NCI-H1623, cell line NCI-H1623",> 30 µM
same,IC50,"NCI-H1650, NCI-H1650 (lung)",26.2 µM
same,IC50,"NCI-H1650, cell line NCI-H1650 (lung)",26.2 µM
same,IC50,"NCI-H1651, NCI-H1651 cells",> 30 µM
same,IC50,"NCI-H1651, cell line NCI-H1651 (lung)",> 30 µM
